According to patent US7026339B2, “Inhibitors of HCV NS5B polymerase” (priority 2003, dated 2006):

Test system: HuH-7 replicon cells 5–15 and 9–13 (HCV replication)
Test: Inhibition of viral replication in HuH-7 replicon cells (HCV RNA / GAPDH RNA by multiplex RT-PCR)
Assay type: cell-based
Conditions: Hepatitis C virus, 72 h; inhibiting 50% of replication; HuH-7 replicon cells, 3 days; read-out: IC50
Method: Compounds were evaluated for inhibition of viral replication according to published procedures (Bartenschlager, R., et. al., Science, 1999, 285, 110) with modifications as follows.
HuH-7 replicon cells 5–15 and 9–13 were cultured in Dulbecco's minimal essential medium (DMEM) containing high glucose and supplemented with 10% fetal bovine serum (FBS), L-glutamine (2 mM), non-essential amino acids (1×), Penicillin (100 IU/mL)/Streptomycin (100 μg/mL) and G418 (Geneticin, 750 μg/mL). Unless otherwise specified, all media components were obtained from Invitrogen. Replicon cell line stocks were maintained as sub-confluent monolayers by passaging every Monday (1:6 split) and Thursday (1:10 split) and incubated at 37° C. with 5% CO2. Tissue culture plates (96-well white clear bottom plates, Corning #3610) were seeded at 7×10^3 cells/well and incubated for 24 hours prior to addition of the compounds.
Compounds in dry powder form were diluted in DMSO (30 mM stock). Serial dilutions of each Compound in DMSO (10 mM–0.1 mM) were performed in a 96-well polypropylene plate using a microtiter format. Culture media (200 μl) was added to the corresponding wells of a sterile 96-well round bottom plate. Diluted compound (2 μl) was added to the corresponding wells of the medial plate (final compound concentrations: 100 μM–1 μM). Culture media was removed from the corresponding wells of the 96-well plate containing the replicon cells and 150 μl diluted compound added. Media containing 1% DMSO and a serially diluted IFN were included on each plate. The cultures were incubated at 37° C. with 5% CO2 for 3 days. Cultures were observed visually for cytotoxicity or compound precipitation prior to RNA extraction described below.
Total cellular RNA was extracted by spin column technology (RNeasy 96, Qiagen) using the vacuum methodology according to the manufacturer's protocol. In brief, culture media was removed and 100 μl RLT lysis buffer containing 0.14M β-mercaptoethanol (β-ME) was added to each well. The plate was kept flat on the laboratory bench and shaken vigorously to lyse the cells. An equal volume of 70% ETOH was mixed with the lysate and added to the corresponding columns of the RNeasy 96-well plate. Vacuum was applied to draw the lysate through the filters. After ventilating the plate, buffer RW1 (1 mL) was drawn through each column. The waste tray was emptied and the filters washed twice with buffer RPE (1 mL/wash). After ventilating the tray, the RNeasy plate was removed and the bottom of the plate struck several times on a stack of paper towels to remove excess wash buffer. The waste tray was removed from the vacuum apparatus and the RNeasy 96-well plate dried by applying vacuum for 10 minutes. Total cellular RNA was eluted from the columns with two washes of 60 μl RNase-free water.
Relative quantitative multiplex RT-PCR was performed using TaqMan (TM) EZ RT Core Reagent kit (Perkin Elmer) according to the manufacturer's protocol (PE Applied Biosystems User Bulletin #2). Primer 061 (NT 61–82) and 139 (NT 139–158) amplifying a short region in the 5′ untranslated region of the HCV genome were utilized at 300 nM final concentrations. Probe #3 (NT 97–119) labeled with FAM reporter dye was utilized at 200 nM final concentration. Pre-developed human GAPDH primers and probe labeled with VIC reporter dye were obtained from PE Applied Biosystems (# 4310884E) and used according to the manufacturer's protocol. TM RT-PCR master mix was prepared containing the above primers/probe for both target RNA. Total cellular RNA (2 μl) was added to the reaction tubes of a 96-well optical plate that corresponded to the wells of the replicon culture plate. The final volume of each reaction was 50 μl. A standard curve was prepared from ten-fold serial dilutions of total cellular RNA extracated from 10^6 replicon cells and eluted in 30 μl RNase-free water. […]

## O=C(Cc1ccncc1)N/N=C/c1ccccc1OS(=O)(=O)c1ccc(C(F)(F)F)cc1 [Compound 1, 2-{(E)-[2-(2-pyridin-4-ylacetyl)-hydrazono]methyl}phenyl 4-(trifluoromethyl)benzenesulfonate]
  IC50: 5 to 50 µM

## O=C(CCc1ccccc1)N/N=C/c1ccccc1OS(=O)(=O)c1ccc(C(F)(F)F)cc1 [Compound 2, 2-{(E)-[2-(3-phenylpropanoyl)-hydrazono]methyl}phenyl 4-(trifluoromethyl)benzenesulfonate]
  IC50: < 5 µM

## O=C(Cc1c[nH]c2ccccc12)N/N=C/c1ccccc1OS(=O)(=O)c1ccc(C(F)(F)F)cc1 [Compound 3, 2-((E)-{2-[2-(1H-indol-3-yl)-acetyl]hydrazono}methyl)phenyl 4-(trifluoromethyl)benzene-sulfonate]
  IC50: < 5 µM

## O=C(Cc1cccs1)N/N=C/c1ccccc1OS(=O)(=O)c1ccc(C(F)(F)F)cc1 [Compound 4, 2-{(E)-[2-(2-thien-2-ylacetyl)-hydrazono]methyl}phenyl 4-(trifluoromethyl)benzenesulfonate]
  IC50: < 5 µM

## O=C(Cc1c[nH]cn1)N/N=C/c1ccccc1OS(=O)(=O)c1ccc(C(F)(F)F)cc1 [Compound 5, 2-((E)-{2-[2-(1H-imidazol-4-yl)acetyl]hydrazono}methyl)phenyl 4-(trifluoromethyl)benzenesulfonate]
  IC50: < 5 µM

## O=C(Cc1cccnc1)N/N=C/c1ccccc1OS(=O)(=O)c1ccc(C(F)(F)F)cc1 [Compound 6, 2-{(E)-[2-(2-pyridin-3-ylacetyl)hydrazono]methyl}phenyl 4-(trifluoromethyl)benzenesulfonate]
  IC50: < 5 µM

## O=C(Cc1ccc(Cl)cc1)N/N=C/c1ccccc1OS(=O)(=O)c1ccc(C(F)(F)F)cc1 [Compound 7, 2-((E)-{2-[2-(4-chlorophenyl)acetyl]hydrazono}methyl)-phenyl 4-(trifluoromethyl)benzenesulfonate]
  IC50: < 5 µM

## O=C(Cc1ccc(F)cc1)N/N=C/c1ccccc1OS(=O)(=O)c1ccc(C(F)(F)F)cc1 [Compound 8, 2-((E)-{2-[2-(4-fluorophenyl)acetyl]hydrazono}methyl)-phenyl 4-(trifluoromethyl)benzenesulfonate]
  IC50: < 5 µM

## O=C(Cc1ccc(F)c(Cl)c1)N/N=C/c1ccccc1OS(=O)(=O)c1ccc(C(F)(F)F)cc1 [Compound 9, 2-((E)-{2-[2-(3-chloro-4-fluorophenyl)acetyl]hydrazono}methyl)-phenyl 4-(trifluoromethyl)benzenesulfonate]
  IC50: < 5 µM

## O=C(Cc1ccc(F)cc1Cl)N/N=C/c1ccccc1OS(=O)(=O)c1ccc(C(F)(F)F)cc1 [Compound 10, 2-((E)-{2-[2-(2-chloro-4-fluorophenyl)acetyl]hydrazono}methyl)-phenyl 4-(trifluoromethyl)benzenesulfonate]
  IC50: < 5 µM

## CN(C)c1ccc(CC(=O)N/N=C/c2ccccc2OS(=O)(=O)c2ccc(C(F)(F)F)cc2)cc1 [Compound 11, 2-[(E)-(2-{2-[4-(dimethylamino)phenyl]acetyl}hydrazono)-methyl]phenyl 4-(trifluoromethyl)benzenesulfonate]
  IC50: < 5 µM

## O=C(Cc1c(F)c(F)c(F)c(F)c1F)N/N=C/c1ccccc1OS(=O)(=O)c1ccc(C(F)(F)F)cc1 [Compound 12, 2-((E)-{2-[2-(pentafluorophenyl)acetyl]hydrazono}-methyl)phenyl 4-(trifluoromethyl)benzenesulfonate]
  IC50: > 50 µM

## O=C(Cc1ccc(F)c(C(F)(F)F)c1)N/N=C/c1ccccc1OS(=O)(=O)c1ccc(C(F)(F)F)cc1 [Compound 13, 2-[(E)-(2-{2-[4-fluoro-3-(trifluoromethyl)phenyl]acetyl}hydrazono)-methyl]phenyl 4-(trifluoromethyl)benzenesulfonate]
  IC50: < 5 µM

## O=C(Cc1ccc(C(F)(F)F)c(F)c1)N/N=C/c1ccccc1OS(=O)(=O)c1ccc(C(F)(F)F)cc1 [Compound 14, 2-[(E)-(2-{2-[3-fluoro-4-(trifluoromethyl)phenyl]acetyl}hydrazono)-methyl]phenyl 4-(trifluoromethyl)benzenesulfonate]
  IC50: < 5 µM
